US20180163178A1, “AUF1 ENCODING COMPOSITIONS FOR MUSCLE CELL UPTAKE, SATELLITE CELL POPULATIONS, AND SATELLITE CELL MEDIATED MUSCLE GENERATION” (priority 2015, published 2018)

How the values were obtained:
[1] = tested on: PAX7+ satellite cell population
Procedure: (§1) Male and female mice 4-6 months of age were injected by 20 uL 1.2% BaCl2 in saline directly to the left TA muscle. Right TA muscle was left uninjured. Mice were monitored and sacrificed by protocol for 1-30 days post-injection. 2 mice per genotype per time point were studied.
Male and female mice 4-6 months of age had their TA removed and preserved in OCT. Skeletal muscle samples were prepared as previously described (Bernet et al., “p38 MAPK Signaling Underlies a Cell-autonomous Loss of Stem Cell Self-renewal in Skeletal Muscle of Aged Mice,” Nature Medicine 20:265-271 (2014), which is hereby incorporated by reference in its entirety). Samples were post-fixed in 4% paraformaldehyde and blocked in 3% BSA in TBS-T. Primary antibodies were incubated at 4° C. overnight. Alexa Fluor donkey 488, 555, and 647 secondary antibodies were used at 1:500 and incubated for 1 hour at room temperature. Slides were sealed with Vectashield with DAPI. The following antibody dilutions were used: rat antibody to Laminin (Sigma, L0663, 1:250), mouse antibody to PAX7 (Santa Cruz Biotechnology, SC-81648, 1:500), goat antibody to hnRNPD (Santa Cruz Biotechnology, SC-22368, 1:250).
Images were acquired using a Zeiss LSM 700 confocal microscope, primarily with the 20× lens. Images were processed and scored using ImageJ64. If needed, color balance was adjusted linearly for the entire image and all images in experimental set. All images were quantified based on field of view. At least 5 images per experimental animal and at least 2 animals per genotype were used for all experiments.
(§2) KO male and female mice 4 months of age were given an IP injection with 25 mg/kg SB-3CT (Sigma-Aldrich) every 24 h, starting 24 h prior to BaCl2 injury with MMPSense injection. Three mice per treatment were analyzed, then means and standard deviations calculated. Data were analyzed with an unpaired t-test.

MMP9 = MMP9 (Mus musculus, UniProt P41245); conditions: auf1 KO mice
Sequence of MMP9 (P41245 108-730): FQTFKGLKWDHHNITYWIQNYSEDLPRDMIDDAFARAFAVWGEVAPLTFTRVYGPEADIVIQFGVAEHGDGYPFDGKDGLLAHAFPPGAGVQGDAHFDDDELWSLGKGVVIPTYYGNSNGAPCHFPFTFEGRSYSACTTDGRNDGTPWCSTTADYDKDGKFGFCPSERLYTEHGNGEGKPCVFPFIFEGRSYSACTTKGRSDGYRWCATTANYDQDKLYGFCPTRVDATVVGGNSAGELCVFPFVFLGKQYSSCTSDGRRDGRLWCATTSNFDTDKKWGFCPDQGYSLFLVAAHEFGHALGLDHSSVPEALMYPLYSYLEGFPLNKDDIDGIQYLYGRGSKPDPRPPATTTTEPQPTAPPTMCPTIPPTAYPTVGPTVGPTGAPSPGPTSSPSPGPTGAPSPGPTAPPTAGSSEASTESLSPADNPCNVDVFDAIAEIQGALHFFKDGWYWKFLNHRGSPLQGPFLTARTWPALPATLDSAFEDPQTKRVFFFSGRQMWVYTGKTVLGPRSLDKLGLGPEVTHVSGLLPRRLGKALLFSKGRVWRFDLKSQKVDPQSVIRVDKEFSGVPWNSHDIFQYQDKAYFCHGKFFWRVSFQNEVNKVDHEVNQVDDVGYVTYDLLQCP
Procedure: as §1
Data were analyzed with an unpaired t-test.
as §2

Which results are given for `O=S(=O)(CC1CS1)c1ccc(Oc2ccccc2)cc1` (centres unmarked) [SB-3CT]?
expansion of the PAX7+ satellite cell population (FIG. 11C) ([1]; SB-3CT treated auf1 KO mice, 7 days post-injury): significant increased expansion; increase in the PAX7+ satellite cell population (FIG. 11D) ([1]; auf1 KO mice, SB-3CT treatment, 7 days post-injury, vs untreated KO): ~4 fold; muscle wound repair ([1]; injured auf1 KO mice, SB-3CT treatment): restoration of muscle wound repair; muscle fiber morphology (FIG. 11C) ([1]; injured, SB-3CT treated auf1 KO mice): near-normal muscle fibers were evident; Laminin expression (FIG. 11C) ([1]; injured, SB-3CT treated auf1 KO mice, 7 days post-injury): strongly increased; reduction in MMP9 activity (bioluminescence analysis, FIG. 11B) (MMP9; SB-3CT IP daily from 24 h prior to BaCl2 TA injury, injured TA 24 h post-injury, vs untreated KO): > 5 fold; MMP9 activity at the site of IP injection (FIG. 11A) (MMP9; SB-3CT IP daily, IVIS imaging): near complete extinction of MMP9 activity; MMP9 activity in the injured TA muscle (FIG. 11A) (MMP9; SB-3CT IP daily, IVIS imaging 24 h after injury): significantly reduced MMP9 activity
